US9051270B2, “Pyridone amides as modulators of sodium channels” (Vertex Pharmaceuticals Incorporated, priority 2013, dated 2015)

Assays:
[1] = Microsomal stability assay, rat liver microsomes (RLM); assay type: in vitro ADME; conditions: rat liver microsomes 0.5 mg/mL, 1 uM substrate, 2 mM NADPH, 37° C., referenced against time zero control
Procedure: (§1) Microsomal Stability Assay.
(§2) Compounds were incubated at 37° C. and shaken for 30 minutes in a phosphate buffered solution with either rat or human liver microsomes and the cofactor NADPH. A time zero control was similarly prepared, however with NADPH excluded. The final incubation concentrations were 1 uM substrate (0.2% DMSO), 0.5 mg/mL liver microsome, 2 mM NADPH, and 0.1 M phosphate. Reactions were quenched and proteins precipitated with the addition of 2 volume equivalents of ice cold acetonitrile containing an internal standard. Following a centrifugation step, aliquots from the quenched incubations were further diluted with 4 volume equivalents of a 50% aqueous methanol solution and then subjected to LC/MS/MS analysis for quantitation of parent compound. Microsome stability values were calculated as the percent of substrate remaining after 30 minutes referenced against the time zero control.
(§3) Microsomal stability in rat and human liver microsomes were determined for selected compounds of the present invention using the above assay. Table 4 provides the human liver microsomes (“HLM”) and rat liver microsomes (“RLM”) stability data as the percent of compound remaining after 30 minutes referenced against the time zero control.

[2] = Microsomal stability assay, human liver microsomes (HLM); assay type: in vitro ADME; conditions: human liver microsomes 0.5 mg/mL, 1 uM substrate, 2 mM NADPH, 37° C., referenced against time zero control
Procedure: as §1, §2, §3

[3] = target: human Nav1.8 (Homo sapiens (Human), UniProt Q9Y5Y9); assay: E-VIPR optical membrane potential assay with electrical stimulation; assay type: cell-based; conditions: HEK cells expressing human Nav1.8
human Nav1.8, sequence (Q9Y5Y9 whole entry): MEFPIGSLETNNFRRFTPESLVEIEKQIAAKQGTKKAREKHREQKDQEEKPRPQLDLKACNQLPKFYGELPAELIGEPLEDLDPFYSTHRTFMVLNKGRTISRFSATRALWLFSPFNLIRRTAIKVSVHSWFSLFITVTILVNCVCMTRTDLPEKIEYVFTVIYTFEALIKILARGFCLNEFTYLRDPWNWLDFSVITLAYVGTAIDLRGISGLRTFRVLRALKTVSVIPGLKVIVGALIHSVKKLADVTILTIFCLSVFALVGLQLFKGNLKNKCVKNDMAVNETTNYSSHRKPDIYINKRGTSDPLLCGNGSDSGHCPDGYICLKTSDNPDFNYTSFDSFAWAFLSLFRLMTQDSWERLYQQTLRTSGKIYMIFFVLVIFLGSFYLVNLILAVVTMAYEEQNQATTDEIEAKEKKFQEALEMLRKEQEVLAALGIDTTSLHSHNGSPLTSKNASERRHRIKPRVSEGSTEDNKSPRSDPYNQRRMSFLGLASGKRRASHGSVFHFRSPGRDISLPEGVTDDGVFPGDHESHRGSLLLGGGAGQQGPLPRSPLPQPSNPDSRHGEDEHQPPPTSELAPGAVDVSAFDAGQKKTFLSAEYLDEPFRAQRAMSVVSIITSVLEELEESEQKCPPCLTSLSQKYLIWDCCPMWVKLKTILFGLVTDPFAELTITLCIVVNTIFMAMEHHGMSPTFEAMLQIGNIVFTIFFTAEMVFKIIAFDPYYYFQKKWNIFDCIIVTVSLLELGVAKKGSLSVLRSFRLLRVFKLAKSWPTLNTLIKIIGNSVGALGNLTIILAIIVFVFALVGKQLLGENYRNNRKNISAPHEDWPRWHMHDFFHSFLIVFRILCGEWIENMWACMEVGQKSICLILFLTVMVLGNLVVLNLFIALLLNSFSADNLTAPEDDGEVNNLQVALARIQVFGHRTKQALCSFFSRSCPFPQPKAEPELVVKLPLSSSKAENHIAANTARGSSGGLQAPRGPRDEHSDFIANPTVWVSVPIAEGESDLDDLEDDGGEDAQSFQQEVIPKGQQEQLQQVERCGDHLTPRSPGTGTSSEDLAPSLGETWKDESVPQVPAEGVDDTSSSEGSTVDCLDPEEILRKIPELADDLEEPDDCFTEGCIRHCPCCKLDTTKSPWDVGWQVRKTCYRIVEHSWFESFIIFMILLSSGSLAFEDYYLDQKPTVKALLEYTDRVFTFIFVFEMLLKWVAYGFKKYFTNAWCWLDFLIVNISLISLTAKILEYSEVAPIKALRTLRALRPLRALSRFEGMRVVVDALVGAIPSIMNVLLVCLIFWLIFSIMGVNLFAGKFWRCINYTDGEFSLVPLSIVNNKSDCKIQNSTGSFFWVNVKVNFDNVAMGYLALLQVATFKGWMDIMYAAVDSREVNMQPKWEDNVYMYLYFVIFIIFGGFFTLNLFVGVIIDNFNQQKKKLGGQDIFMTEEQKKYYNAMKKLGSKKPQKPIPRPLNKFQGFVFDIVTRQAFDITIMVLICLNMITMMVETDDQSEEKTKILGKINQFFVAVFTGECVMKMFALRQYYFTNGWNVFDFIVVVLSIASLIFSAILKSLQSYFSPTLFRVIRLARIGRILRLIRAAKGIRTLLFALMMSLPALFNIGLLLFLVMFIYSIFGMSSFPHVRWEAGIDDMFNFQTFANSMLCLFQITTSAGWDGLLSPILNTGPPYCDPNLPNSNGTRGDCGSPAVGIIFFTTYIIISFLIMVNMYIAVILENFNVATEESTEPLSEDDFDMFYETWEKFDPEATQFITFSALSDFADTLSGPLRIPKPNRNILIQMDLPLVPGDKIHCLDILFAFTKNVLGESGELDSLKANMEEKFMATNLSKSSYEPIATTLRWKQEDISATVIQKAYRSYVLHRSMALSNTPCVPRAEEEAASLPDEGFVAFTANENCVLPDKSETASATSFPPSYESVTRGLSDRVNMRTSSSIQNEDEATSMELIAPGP

Row | Compound | RLM (% remaining @ 30 minutes) [1] | HLM (% remaining @ 30 minutes) [2] | IC50 [3]
1 | O=C(Nc1cc[nH]c(=O)c1)c1cc(Cl)ccc1Oc1ccc(F)cc1Cl [Compound 66, 5-chloro-2-(2-chloro-4-fluorophenoxy)-N-(2-oxo-1,2-dihydropyridin-4-yl)benzamide] | 106% | 100% | 37 nM
2 | O=C(Nc1cc[nH]c(=O)c1)c1cc(F)ccc1Oc1ccc(OC(F)(F)F)cc1 [Compound 101, 5-fluoro-N-(2-oxo-1,2-dihydropyridin-4-yl)-2-(4-(trifluoromethoxy)phenoxy)benzamide] | 89% | 97% | 120 nM
3 | COc1ccc(Oc2cc(Cl)c(Cl)cc2C(=O)Nc2cc[nH]c(=O)c2)cc1F [Compound 115, 4,5-dichloro-2-(3-fluoro-4-methoxyphenoxy)-N-(2-oxo-1,2-dihydropyridin-4-yl)benzamide] | 95% | 102% | 7 nM
4 | O=C(Nc1cc[nH]c(=O)c1)c1cc(OC(F)(F)F)ccc1Oc1ccc(F)cc1F [Compound 33, 2-(2,4-difluorophenoxy)-N-(2-oxo-1,2-dihydropyridin-4-yl)-5-(trifluoromethoxy)benzamide] | 110% | 100% | 95 nM
5 | COc1cc(F)ccc1Oc1cc(C(F)(F)C(F)(F)F)ccc1C(=O)Nc1cc[nH]c(=O)c1 [Compound 111, 2-(4-fluoro-2-methoxyphenoxy)-N-(2-oxo-1,2-dihydropyridin-4-yl)-4-(perfluoroethyl)benzamide] | 90% | 91% | 3 nM
6 | O=C(Nc1cc[nH]c(=O)c1)c1ccc(C(F)(F)F)cc1OCC1CCCC1 [Compound 120, 2-(cyclopentylmethoxy)-N-(2-oxo-1,2-dihydropyridin-4-yl)-4-(trifluoromethyl)benzamide] | 79% | 87% | 150 nM
7 | COc1cc(F)ccc1Oc1ccc(C(F)(F)F)cc1C(=O)Nc1cc[nH]c(=O)c1 [Compound 30, 2-(4-fluoro-2-methoxyphenoxy)-N-(2-oxo-1,2-dihydropyridin-4-yl)-5-(trifluoromethyl)benzamide] | 78% | 76% | 11 nM
8 | COc1cc(F)ccc1Oc1cc(Cl)c(Cl)cc1C(=O)Nc1cc[nH]c(=O)c1 [Compound 114, 4,5-dichloro-2-(4-fluoro-2-methoxyphenoxy)-N-(2-oxo-1,2-dihydropyridin-4-yl)benzamide] | 82% | 91% | 1 nM
9 | O=C(Nc1cc[nH]c(=O)c1)c1cc(C(F)(F)F)ccc1Oc1ccccc1OC(F)F [Compound 76, 2-(2-(difluoromethoxy)phenoxy)-N-(2-oxo-1,2-dihydropyridin-4-yl)-5-(trifluoromethyl)benzamide] | 93% | 97% | 54 nM
10 | O=C(Nc1cc[nH]c(=O)c1)c1cc(C(F)(F)F)ccc1Oc1ccc(F)cc1 [Compound 2, 2-(4-fluorophenoxy)-N-(2-oxo-1,2-dihydropyridin-4-yl)-5-(trifluoromethyl)benzamide] | 104% | 100% | 54 nM
11 | O=C(Nc1cc[nH]c(=O)c1)c1ccc(C(F)(F)F)cc1Oc1ccc(OC(F)F)cc1 [Compound 82, 2-(4-(difluoromethoxy)phenoxy)-N-(2-oxo-1,2-dihydropyridin-4-yl)-4-(trifluoromethyl)benzamide] | 98% | 101% | 36 nM
12 | O=C(Nc1cc[nH]c(=O)c1)c1ccc(C(F)(F)C(F)(F)F)cc1Oc1ccc(F)cc1 [Compound 88, 2-(4-fluorophenoxy)-N-(2-oxo-1,2-dihydropyridin-4-yl)-4-(perfluoroethyl)benzamide] | 102% | 100% | 12 nM
13 | O=C(Nc1cc[nH]c(=O)c1)c1cc(C(F)(F)F)ccc1Oc1ccccc1OC(F)(F)F [Compound 75, N-(2-oxo-1,2-dihydropyridin-4-yl)-2-(2-(trifluoromethoxy)phenoxy)-5-(trifluoromethyl)benzamide] | 95% | 90% | 51 nM
14 | Cc1cc(F)ccc1Oc1cc(Cl)ccc1C(=O)Nc1cc[nH]c(=O)c1 [Compound 20, 4-chloro-2-(4-fluoro-2-methylphenoxy)-N-(2-oxo-1,2-dihydropyridin-4-yl)benzamide] | 88% | 104% | 30 nM
15 | CCOc1ccc(Oc2ccc(C(F)(F)F)cc2C(=O)Nc2cc[nH]c(=O)c2)cc1 [Compound 44, 2-(4-ethoxyphenoxy)-N-(2-oxo-1,2-dihydropyridin-4-yl)-5-(trifluoromethyl)benzamide] | 84% | 93% | 20 nM
16 | O=C(Nc1cc[nH]c(=O)c1)c1cc(C(F)(F)F)ccc1Oc1ccc(F)c(F)c1F [Compound 90, N-(2-oxo-1,2-dihydropyridin-4-yl)-5-(trifluoromethyl)-2-(2,3,4-trifluorophenoxy)benzamide] | 104% | 101% | 26 nM
17 | Cc1cc(F)ccc1Oc1ccc(C(F)(F)F)cc1C(=O)Nc1cc[nH]c(=O)c1 [Compound 31, 2-(4-fluoro-2-methylphenoxy)-N-(2-oxo-1,2-dihydropyridin-4-yl)-5-(trifluoromethyl)benzamide] | 91% | 92% | 17 nM
18 | O=C(Nc1cc[nH]c(=O)c1)c1cc(Cl)c(Cl)cc1Oc1ccc(F)cc1 [Compound 113, 4,5-dichloro-2-(4-fluorophenoxy)-N-(2-oxo-1,2-dihydropyridin-4-yl)benzamide] | 102% | 105% | 6 nM
19 | O=C(Nc1cc[nH]c(=O)c1)c1ccc(C(F)(F)F)cc1OCCCC(F)(F)F [Compound 123, N-(2-oxo-1,2-dihydropyridin-4-yl)-2-(4,4,4-trifluorobutoxy)-4-(trifluoromethyl)benzamide] | 98% | 103% | 355 nM
20 | O=C(Nc1cc[nH]c(=O)c1)c1ccc(C(F)(F)F)cc1Oc1ccc(OC(F)(F)F)cc1 [Compound 79, N-(2-oxo-1,2-dihydropyridin-4-yl)-2-(4-(trifluoromethoxy)phenoxy)-4-(trifluoromethyl)benzamide] | 100% | 103% | 11 nM
21 | Cc1ccccc1Oc1ccc(C(F)(F)F)cc1C(=O)Nc1cc[nH]c(=O)c1 [Compound 28, N-(2-oxo-1,2-dihydropyridin-4-yl)-2-(o-tolyloxy)-5-(trifluoromethyl)benzamide] | 70% | 79% | 44 nM
22 | O=C(Nc1cc[nH]c(=O)c1)c1cc(C(F)(F)F)ccc1Oc1ccc(F)cc1Cl [Compound 29, 2-(2-chloro-4-fluorophenoxy)-N-(2-oxo-1,2-dihydropyridin-4-yl)-5-(trifluoromethyl)benzamide] | 107% | 107% | 28 nM
23 | O=C(Nc1cc[nH]c(=O)c1)c1c(Oc2ccc(F)cc2F)cc(C(F)(F)F)cc1C(F)(F)F [Compound 152, 2-(2,4-difluorophenoxy)-N-(2-oxo-1,2-dihydropyridin-4-yl)-4,6-bis(trifluoromethyl)benzamide] | 100% | 103% | 44 nM
24 | COCCOc1ccc(Oc2cc(C(F)(F)F)ccc2C(=O)Nc2cc[nH]c(=O)c2)cc1 [Compound 8, 2-(4-(2-methoxyethoxy)phenoxy)-N-(2-oxo-1,2-dihydropyridin-4-yl)-4-(trifluoromethyl)benzamide] | 86% | 90% | 330 nM
25 | CC(C)(C)c1ccc(C(=O)Nc2ccc(=O)[nH]c2)c(Oc2ccc(C(F)(F)F)nc2)c1 [Compound 142, 4-(tert-butyl)-N-(6-oxo-1,6-dihydropyridin-3-yl)-2-((6-(trifluoromethyl)pyridin-3-yl)oxy)benzamide] | 50% | 38% | 653 nM
26 | O=C(Nc1cc[nH]c(=O)c1)c1cc(F)c(Cl)cc1Oc1ccc(F)cc1Cl [Compound 109, 4-chloro-2-(2-chloro-4-fluorophenoxy)-5-fluoro-N-(2-oxo-1,2-dihydropyridin-4-yl)benzamide] | 100% | 103% | 19 nM
